Patent publication US4299838A, “Tryptophan derivatives having an increased effect on the central nervous system” (priority 1974, dated 1981)

Tests used:
[1] = Acute toxicity (LD 50) in the mouse; format: in vivo; settings: mouse, in vivo, po
Text: (§1) The oral LD-50 is 16.50 g/kg for DL and 18.25 g/kg for L(+).

[2] = Solubility and hygroscopicity; format: physicochemical
[3] = Acute toxicity (LD 50) in the mouse; format: in vivo; settings: mouse, in vivo, ip, intraperitoneal, mice
mice [4] = test: Acute toxicity (LD 50) in the mouse; format: in vivo; settings: for LD50: intraperitoneal, mice; for LD-50: oral, mouse
depression = test: Clinical tests in depression; format: in vivo; settings: human
Text: (§2) The importance of the compounds according to the invention was confirmed by clinical tests.

[5] = Pharmacological study, overall comparison; format: in vivo; settings: for pharmacological properties: in vivo
[6] = tested on: amphetamine hyperactivity; test: Potentiation of amphetamine hyperactivity (actography); format: in vivo, mouse
Text: (f) Potentiation of amphetamine hyperactivity.

mice [7] = test: Acute toxicity (LD 50) in the mouse; format: in vivo
Text: as §1

rat = test: Hypothermic effect on the rat (rectal temperature); format: in vivo; settings: 1 g/kg intraperitoneal
Text: (a) A hypothermic effect on the rat.

[8] = tested on: hyperactivity due to the association of amphetamine and chlorodiazepoxide; test: Inhibition of hyperactivity due to the association of amphetamine and chlorodiazepoxide (actography); format: in vivo, mouse; settings: 500 and 1000 mg/kg i.p., 1 hour and 3 hours before (+) amphetamine sulphate (5 mg/kg) and chlorodiazepoxide (25 or 50 mg/kg)
Experimental: (b) Inhibition of hyperactivity due to the association of amphetamine and chlorodiazepoxide;
Simultaneous intraperitoneal administration of (+) amphetamine sulphate (5 mg/kg) and chlorodiazepoxide (25 or 50 mg/kg) to mice produced hyperactivity which was measured by the actography method, wherein the mice are placed in pairs in three suspended cages and their movements are recorded.

exploratory activity = test: Exploratory activity in the perforated board test; format: in vivo, mouse; settings: mice
Text: (c) The reduction of exploratory activity in the `perforated board` test (Boissiet and Simon-Arch-Int. Pharmacodyn. 1964, 147, 3-4).

reserpine ptosis = test: Reserpine anti-ptosis effect; format: in vivo, mouse
Experimental: (d) A reserpine anti-ptosis effect. Increasing doses of the test product were subcutaneously administered to male mice, 30 minutes before intraperitoneal injection of reserpine. The ptosis was measured every half-hour for 5 hours by the method of Rubin et Coll. (observation of the occlusion of the lids of each eye). The percentage protection against ptosis was calculated, compared with controls. Lithium acetyl tryptothanate reduced ptosis produced by reserpine, to an extent which increased up to a dose of 800 mg/kg (45% reduction).

[9] = tested on: analgesia produced by morphine; test: Heating plate test (analgesia produced by morphine); format: in vivo
[10] = tested on: manic-depressive psychoses; test: Clinical tests in manic-depressive psychoses; format: in vivo, human
Experimental: as §2
Lithium N-acetyl tryptophanate was used to treat manic-depressive psychoses.
A person was treated for a manic-depressive psychosis for 6 years. Relapses normally occurred in spring. They were not prevented either by tricyclic drugs or by IMAO substances. Treatment with lithium carbonate produced oligo-menorrhoea, although the patient normally had regular periods.

[11] = Acute toxicity (LD-50) in the rat; settings: in vivo
Text: as §1

[12] = tested on: pentobarbitone sleeping time; test: Pentobarbitone sleeping time; format: in vivo; settings: mouse, 35 mg/kg pentobarbitone 5 minutes before sub-cutaneous product
gastric ulcers [13] = test: Anti-ulcer effect, stress-ulcer method of Rossi et Coll.; format: in vivo, mouse; settings: for DE-50 as fraction of the LD-50 / ED50: stress-ulcer method; for ED50: mouse, read-out: DE-50 (anti-ulcer dose 50)
Experimental: (§3) Mg acetyl tryptophanate dissolved in twice-distilled water was administered 48 hours before, 24 hours before and at the moment when the mouse was put under constraint, or 24 hours before and 1 hour before the ligature of the pylorus.
(§4) The DE-50 (anti-ulcer dose 50) of orally-administered Mg acetyl tryptophanate, measured by the stress-ulcer method, was 1700 mg/kg. The DE-50 of intraperitoneally administered Mg acetyl tryptophanate was 230 mg/kg, measured by the stress-ulcer method (i.e. one-tenth of the LD-50) compared with 16 mg/kg (33/100 of the LD-50) for prifinium bromide; measured by the Shay method, the DE-50 was 340 mg/kg (14/100 of the LD-50) for Mg acetyl tryptophanate, compared with 25 mg/kg (52/100 of the LD-50) for prifinium bromide under the same conditions.

gastric ulcers [14] = test: Anti-ulcer effect, Shay method (ligature of the pylorus); format: in vivo, mouse; settings: for ED50: mouse, read-out: DE-50 (anti-ulcer dose 50)
Experimental: as §3, §4

CC(=O)NC(Cc1c[nH]c2ccccc12)C(=O)O (racemic) [Lithium N-acetyl tryptophanate (DL), Li N-acetyl tryptophan (DL)]
LD50 [1]: 8700 mg/kg
solubility in water [2]: very soluble
LD50 [3]: 3400 mg/kg

CC(=O)NC(Cc1c[nH]c2ccccc12)C(=O)O (racemic) [Magnesium N-acetyl tryptophanate (DL), magnesium N-acetyl tryptophanate (DL)]
LD50 [1]: 16500 mg/kg
hygroscopicity [2]: very hygroscopic
LD50 (mice [4]): 2.80 g/kg

CC(=O)NC(Cc1c[nH]c2ccccc12)C(=O)O (racemic) [Monoethanolamine N-acetyl tryptophanate, monoethanolamine N-acetyl tryptophanate (DL)]
effect on sleep, sthenic action and headaches (depression): producing normal sleep, accompanied by a daily sthenic action and the control of refractory headaches
use in the treatment of depression (depression): of use in the treatment of depression
solubility in chlorine and hydrocarbon derivatives ([2]; chlorine and hydrocarbon derivatives): insoluble
solubility in water [2]: fairly soluble
pharmacological properties [5]: very similar to those of magnesium N-acetyl tryptophanate
LD-50 (mice [4]): above 18 g/kg

CC(=O)NC(Cc1c[nH]c2ccccc12)C(=O)O (racemic) [Morpholine N-acetyl tryptophanate, morpholine N-acetyl tryptophanate]
effect on sleep, sthenic action and headaches (depression): producing normal sleep, accompanied by a daily sthenic action and the control of refractory headaches
use in the treatment of depression (depression): of use in the treatment of depression
solubility in chlorinated solvents ([2]; chlorinated solvents): slightly soluble
solubility in water [2]: very soluble
pharmacological properties [5]: very similar to those of magnesium N-acetyl tryptophanate
LD-50 (mice [4]): 16 g/kg

C[C@H](N)Cc1ccccc1 [Dexamphetamine sulphate, dexamphetamine sulphate, reference compound]
excitation, dexamphetamine sulphate alone ([6]; 5 mg/kg intraperitoneal, mouse): did not produce very marked excitation

CC(=O)N[C@@H](Cc1c[nH]c2ccccc12)C(=O)O [Lithium N-acetyl tryptophanate L(+), Lithium N-acetyl tryptophanate in the L(+) form]
LD50 [1]: 10500 mg/kg
solubility in chlorinated and aromatic solvents ([2]; chlorinated and aromatic solvents): very slightly soluble
solubility in ethyl alcohol ([2]; ethyl alcohol): soluble
solubility in water [2]: soluble
LD50 [3]: 3250 mg/kg

CC(=O)NC(Cc1c[nH]c2ccccc12)C(=O)O (stereo not drawn) [Lithium N-acetyl tryptophanate, lithium N-acetyl tryptophanate]
toxicity in words (mice [7]; mouse, in vivo): only slightly toxic
oral toxicity in words (mice [7]; oral): low
duration of progressive reduction of rectal temperature after injection (rat): 110 min
temperature of the rectum (rat): progressively reduces the temperature of the rectum
reduction in hyperactivity [8]: very marked reduction in hyperactivity
mobility (exploratory activity; 1000 mg/kg intraperitoneal): very marked increase in mobility
exploratory activity (exploratory activity; 1500 mg/kg intraperitoneal): significant reduction in exploratory activity
reduction of ptosis produced by reserpine (reserpine ptosis; 800 mg/kg subcutaneous, 30 minutes before i.p. reserpine, male mice): 45%
excitation with 5 mg/kg dexamphetamine sulphate plus product (actography) ([6]; 500 mg/kg with 5 mg/kg i.p. dexamphetamine sulphate, mice): to a considerably greater extent than with dexamphetamine sulphate alone
effect on analgesia produced by morphine [9]: did not affect analgesia produced by morphine
tolerance by patients ([10]; human, in vivo): tolerated by the patients better than lithium carbonate
prevention of relapses ([10]; manic-depressive psychoses): appeared to prevent relapses into cyclothymia

O=C(O)O [Lithium carbonate, lithium carbonate]
lithaemia ([10]; observation No. 1): ≤ 1 meq
side effect on menstruation ([10]; observation No. 1): oligo-menorrhoea
side effects during treatment ([10]; observation No. 1): nausea and attacks of vomiting

CC(=O)N[C@@H](Cc1c[nH]c2ccccc12)C(=O)O [Magnesium N-acetyl tryptophanate L(+), L(+) magnesium N-acetyl tryptophanate]
LD50 [1]: 18200 mg/kg
solubility in water [2]: very soluble
LD50 (mice [4]): 2.30 g/kg

CC(=O)NC(Cc1c[nH]c2ccccc12)C(=O)O (stereo not drawn) [Magnesium N-acetyl tryptophanate, magnesium N-acetyl tryptophanate]
LD50 ([11]; ip, intraperitoneal): 1350 mg/kg
LD50 ([11]; oral): > 8000 mg/kg
reserpine anti-ptosis effect in words (reserpine ptosis; mouse, in vivo): only a very slight reserpine anti-ptosis effect
average sleeping time [12]: increased the average sleeping time to an extent proportional to the dose
anti-ulcer effect compared with prifinium bromide (gastric ulcers [13]; both ulcer methods): slightly lower anti-ulcer effect than prifinium bromide
safety in therapy compared with prifinium bromide (gastric ulcers [13]; both ulcer methods): safer in therapy
DE-50 as fraction of the LD-50 (gastric ulcers [13]; intraperitoneal): one-tenth
ED50 (gastric ulcers [13]; ip, intraperitoneal): 230 mg/kg
ED50 (gastric ulcers [13]; oral): 1700 mg/kg
DE-50 as fraction of the LD-50 (gastric ulcers [14]): 14/100
ED50 (gastric ulcers [14]): 340 mg/kg
effect on sleep, sthenic action and headaches (depression): producing normal sleep, accompanied by a daily sthenic action and the control of refractory headaches
use in the treatment of depression (depression): of use in the treatment of depression
action compared with lithium acetyl tryptophanate ([5]; measured by the same tests): slower but more prolonged

CC[N+]1(CC)CCC(=C(c2ccccc2)c2ccccc2)C1C (stereo not drawn) [Prifinium bromide, prifinium bromide, reference compound]
DE-50 as fraction of the LD-50 (gastric ulcers [13]; intraperitoneal): 33/100
ED50 (gastric ulcers [13]; ip, intraperitoneal): 16 mg/kg
DE-50 as fraction of the LD-50 (gastric ulcers [14]): 52/100
ED50 (gastric ulcers [14]): 25 mg/kg
